Reference: patent US20240018161A1, “MODULATORS OF CYSTIC FIBROSIS TRANSMEMBRANE CONDUCTANCE REGULATOR” (VERTEX PHARMACEUTICALS INCORPORATED, priority 2020, published 2024)
Read-outs that look alike come from different tables or passages of the source.

Target: CFTR-mediated chloride transport in human intestinal epithelial enteroid cells (Homo sapiens, UniProt P13569)
Assay: Membrane potential dye, Enteroid Assay A
Format: cell-based
Details: for EC50: read-out: Ent. A EC50
Protocol: Base medium (ADF+++) consisted of Advanced DMEM/Ham's F12, 2 mM Glutamax, 10 mM HEPES, […] penicillin/streptomycin.
Bath 1 Buffer consisted of 1 mM MgCl2, 160 mM NaCl, 4.5 mM KCl, 10 mM HEPES, 10 mM Glucose, 2 mM CaCl2.
Chloride Free Buffer consisted of 1 mM Magnesium Gluconate, 2 mM Calcium Gluconate, 4.5 mM Potassium Gluconate, 160 mM Sodium Gluconate, 10 mM HEPES, 10 mM Glucose.
Bath1 Dye Solution consisted of Bath 1 Buffer, 0.04% Pluronic F127, 20 μM Methyl Oxonol, 30 μM CaCCinh-A01, 30 μM Chicago Sky Blue.
Chloride Free Dye Solution consisted of Chloride Free Buffer, 0.04% Pluronic F127, 20 μM Methyl Oxonol, 30 μM CaCCinh-A01, 30 μM Chicago Sky Blue.
3. Enteroid Cell Harvesting and Seeding
Cells were recovered in cell recovery solution, collected by centrifugation at 650 rpm for 5 min at 4° C., resuspended in TryPLE and incubated for 5 min at 37° C. Cells were then collected by centrifugation at 650 rpm for 5 min at 4° C. and resuspended in IEMM containing 10 μM ROCK inhibitor (RI).
4. Membrane Potential Dye, Enteroid Assay A
Briefly, cells were washed 5 times in Bath 1 Buffer. Bath 1 Dye Solution was added, and the cells were incubated for 25 min at room temperature. Following dye incubation, cells were washed 3 times in Chloride Free Dye Solution. Chloride transport was initiated by addition of Chloride Free Dye Stimulation Solution and the fluorescence signal was read for 15 min. […] Chloride transport was then expressed as a percentage of the chloride transport following treatment with 3 μM N-[(6-amino-2-pyridyl)sulfonyl]-6-(3-fluoro-5-isobutoxy-phenyl)-2-[(4S)-2,2,4-trimethylpyrrolidin-1-yl]pyridine-3-carboxamide, 3 μM (R)-1-(2,2-difluorobenzo[d][1,3]dioxol-5-yl)-N-(1-(2,3-dihydroxypropyl)-6-fluoro-2-(1-hydroxy-2-methylpropan-2-yl)-1H-indol-5-yl)cyclopropanecarboxamide and 300 nM acute N-[2,4-bis(1,1-dimethylethyl)-5-hydroxyphenyl]-1,4-dihydro-4-oxoquinoline-3-carboxamide triple combination control (% Activity).

[1] = enteroid cells incubated with test compound 18-24 hours, acute 10 μM forskolin and 300 nM N-[2,4-bis(1,1-dimethylethyl)-5-hydroxyphenyl]-1,4-dihydro-4-oxoquinoline-3-carboxamide
[2] = percentage of chloride transport of triple combination control (3 μM N-[(6-amino-2-pyridyl)sulfonyl]-6-(3-fluoro-5-isobutoxy-phenyl)-2-[(4S)-2,2,4-trimethylpyrrolidin-1-yl]pyridine-3-carboxamide based)

Chain of CFTR-mediated chloride transport in human intestinal epithelial enteroid cells (P13569 with tags, fused parts or gaps DEL508-508): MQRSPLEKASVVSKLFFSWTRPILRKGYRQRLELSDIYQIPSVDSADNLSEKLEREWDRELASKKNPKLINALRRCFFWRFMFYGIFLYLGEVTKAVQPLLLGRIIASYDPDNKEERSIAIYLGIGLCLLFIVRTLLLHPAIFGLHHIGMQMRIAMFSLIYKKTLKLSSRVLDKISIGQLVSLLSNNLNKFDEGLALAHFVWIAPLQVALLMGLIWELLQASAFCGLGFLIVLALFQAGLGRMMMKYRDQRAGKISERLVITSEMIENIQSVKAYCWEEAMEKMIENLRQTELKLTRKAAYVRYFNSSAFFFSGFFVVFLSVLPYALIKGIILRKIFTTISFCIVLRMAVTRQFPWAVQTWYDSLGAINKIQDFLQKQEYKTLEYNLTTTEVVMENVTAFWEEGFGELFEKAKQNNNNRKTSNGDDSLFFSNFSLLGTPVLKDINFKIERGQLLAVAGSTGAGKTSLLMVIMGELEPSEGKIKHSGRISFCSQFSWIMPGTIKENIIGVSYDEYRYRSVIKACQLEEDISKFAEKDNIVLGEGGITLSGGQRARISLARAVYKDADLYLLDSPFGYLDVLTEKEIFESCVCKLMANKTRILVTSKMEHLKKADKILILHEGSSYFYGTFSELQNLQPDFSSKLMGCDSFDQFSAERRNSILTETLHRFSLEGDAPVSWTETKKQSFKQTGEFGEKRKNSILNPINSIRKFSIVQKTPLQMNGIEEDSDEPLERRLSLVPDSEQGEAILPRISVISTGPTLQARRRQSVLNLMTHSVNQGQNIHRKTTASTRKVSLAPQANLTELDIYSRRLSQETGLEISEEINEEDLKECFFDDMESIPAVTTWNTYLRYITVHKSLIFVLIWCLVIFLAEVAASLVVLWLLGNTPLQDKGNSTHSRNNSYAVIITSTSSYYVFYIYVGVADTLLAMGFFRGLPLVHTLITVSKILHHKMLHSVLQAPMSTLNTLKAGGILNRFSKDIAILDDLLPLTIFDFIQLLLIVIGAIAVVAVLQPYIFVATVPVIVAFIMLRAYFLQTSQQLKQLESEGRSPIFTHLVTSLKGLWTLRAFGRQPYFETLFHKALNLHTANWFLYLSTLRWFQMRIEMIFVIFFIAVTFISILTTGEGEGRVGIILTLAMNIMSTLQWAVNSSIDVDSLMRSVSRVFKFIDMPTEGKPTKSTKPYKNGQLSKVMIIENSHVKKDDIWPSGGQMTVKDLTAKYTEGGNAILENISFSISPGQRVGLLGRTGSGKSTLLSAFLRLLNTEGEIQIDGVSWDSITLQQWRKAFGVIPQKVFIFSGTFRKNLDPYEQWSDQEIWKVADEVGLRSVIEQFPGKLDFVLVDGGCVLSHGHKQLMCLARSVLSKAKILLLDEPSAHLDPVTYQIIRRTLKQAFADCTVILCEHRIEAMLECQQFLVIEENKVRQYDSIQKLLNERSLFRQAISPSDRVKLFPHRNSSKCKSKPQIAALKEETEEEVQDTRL

Row | Ent. A Max Activity (%) (Enteroid Assay A) | EC50 (Enteroid Assay A) [µM] | EC50 [1] [µM] | Structure (SMILES) | Ent. A Max Activity (%) [2]
1 | + (+ is <30%) |  |  | Cc1cccc(C)c1-c1cc2nc(n1)NS(=O)(=O)c1cccc(c1)C(=O)N1CC(O2)C2CCCN(C)C2C1 (single isomer, unassigned) [Compound 202, 12-(2,6-Dimethylphenyl)-21-methyl-15-oxa-8λ^6-thia-1,9,11,21,25-pentaazapentacyclo[14.7.1.13,7.110,14.017,22]hexacosa-3,5,7(26),10(25),11,13-hexaene-2,8,8-trione] | 
2 | ++ (++ is 30-60%) | 3 to 30 |  | Cc1cccc(C)c1-c1cc2nc(n1)NS(=O)(=O)c1cccc(c1)C(=O)N1CC3C(CCCN3C)[C@@H](C1)O2 (single isomer, unassigned) [Compound 203, 12-(2,6-dimethylphenyl)-21-methyl-15-oxa-8λ^6-thia-1,9,11,21,25-pentaazapentacyclo[14.7.1.13,7.110,14.017,22]hexacosa-3,5,7(26),10(25),11,13-hexaene-2,8,8-trione] | 
3 |  | 1 to 3 |  | Cc1cccc(C)c1-c1cc2nc(n1)NS(=O)(=O)c1cccc(c1)C(=O)N1CC3C(CCCN3C)[C@H](C1)O2 (single isomer, unassigned) [Compound 204, 12-(2,6-dimethylphenyl)-21-methyl-15-oxa-8λ^6-thia-1,9,11,21,25-pentaazapentacyclo[14.7.1.13,7.110,14.017,22]hexacosa-3,5,7(26),10(25),11,13-hexaene-2,8,8-trione] | 
4 |  |  | 1 to 3 | Cc1cccc(C)c1-c1cc2nc(n1)NS(=O)(=O)c1cccc(c1)C(=O)N1Cc3ccccc3C[C@H](C1)O2 (single isomer, unassigned) [Compound 216, 12-(2,6-dimethylphenyl)-15-oxa-8λ^6-thia-1,9,11,26-tetraazapentacyclo[14.8.1.13,7.110,14.018,23]heptacosa-3(27),4,6,10,12,14(26),18,20,22-nonaene-2,8,8-trione] | +++ (+++ is >60%)
5 |  | < 1 |  | Cc1cccc(C)c1-c1cc2nc(n1)NS(=O)(=O)c1cccc(c1)C(=O)N1CCc3ccccc3C(C1)O2 (single isomer, unassigned) [Compound 221, 12-(2,6-dimethylphenyl)-15-oxa-8λ^6-thia-1,9,11,26-tetraazapentacyclo[14.8.1.13,7.110,14.017,22]heptacosa-3(27),4,6,10(26),11,13,17,19,21-nonaene-2,8,8-trione] | 
6 |  |  | < 1 | Cc1cccc(C)c1-c1cc2nc(n1)NS(=O)(=O)c1cccc(c1)C(=O)N1CC(CC(c3ccccc3)C1)O2 (single isomer, unassigned) [Compound 223, 18-(2,6-dimethylphenyl)-5-phenyl-2-oxa-14λ^6-thia-7,15,17,20-tetraazatetracyclo[14.3.1.13,7.19,13]docosa-1(19),9(21),10,12,16(20),17-hexaene-8,14,14-trione] | ++ (++ is 30-60%)
7 |  |  | < 1 | Cc1cccc(C)c1-c1cc2nc(n1)NS(=O)(=O)c1cccc(c1)C(=O)N1CC(CC(c3ccccc3)C1)O2 (single isomer, unassigned) [Compound 224, 18-(2,6-dimethylphenyl)-5-phenyl-2-oxa-14λ^6-thia-7,15,17,20-tetraazatetracyclo[14.3.1.13,7.19,13]docosa-1(19),9(21),10,12,16(20),17-hexaene-8,14,14-trione] | ++ (++ is 30-60%)
8 |  |  | < 1 | Cc1cccc(C)c1-c1cc2nc(n1)NS(=O)(=O)c1cccc(c1)C(=O)N1CC(CCC1c1ccccc1)O2 (single isomer, unassigned) [Compound 225, 18-(2,6-dimethylphenyl)-6-phenyl-2-oxa-14λ^6-thia-7,15,17,20-tetraazatetracyclo[14.3.1.13,7.19,13]docosa-1(19),9(21),10,12,16(20),17-hexaene-8,14,14-trione] | ++ (++ is 30-60%)
9 |  |  | < 1 | Cc1cccc(C)c1-c1cc2nc(n1)NS(=O)(=O)c1cccc(c1)C(=O)N1CC(CCC1c1ccccc1)O2 (single isomer, unassigned) [Compound 226, 18-(2,6-Dimethylphenyl)-6-phenyl-2-oxa-14λ^6-thia-7,15,17,20-tetraazatetracyclo[14.3.1.13,7.19,13]docosa-1(19),9(21),10,12,16(20),17-hexaene-8,14,14-trione] | ++ (++ is 30-60%)
10 |  |  | < 1 | Cc1cccc(C)c1-c1cc2nc(n1)NS(=O)(=O)c1cccc(c1)C(=O)N1CCCC(O2)C1CC(C)C (single isomer, unassigned) [Compound 230, 18-(2,6-Dimethylphenyl)-22-(2-methylpropyl)-2-oxa-14λ^6-thia-7,15,17,20-tetraazatetracyclo[14.3.1.13,7.19,13]docosa-1(20),9(21),10,12,16,18-hexaene-8,14,14-trione] | +++ (+++ is >60%)
11 |  |  | < 1 | Cc1cccc(C)c1-c1cc2nc(n1)NS(=O)(=O)c1cccc(c1)C(=O)N1CCCC(O2)C1CC(C)C (single isomer, unassigned) [Compound 231, 18-(2,6-Dimethylphenyl)-22-(2-methylpropyl)-2-oxa-14λ^6-thia-7,15,17,20-tetraazatetracyclo[14.3.1.13,7.19,13]docosa-1(20),9(21),10,12,16,18-hexaene-8,14,14-trione] | +++ (+++ is >60%)
12 |  | < 1 |  | Cc1cccc(C)c1-c1cc2nc(n1)NS(=O)(=O)c1cccc(c1)C(=O)N1CC(C)(C)CC(O2)C1CC(C)C (single isomer, unassigned) [Compound 232, 18-(2,6-Dimethylphenyl)-5,5-dimethyl-22-(2-methylpropyl)-2-oxa-14λ^6-thia-7,15,17,20-tetraazatetracyclo[14.3.1.13,7.19,13]docosa-1(20),9(21),10,12,16,18-hexaene-8,14,14-trione] | 
13 |  | < 1 |  | Cc1cccc(C)c1-c1cc2nc(n1)NS(=O)(=O)c1cccc(c1)C(=O)N1CC(C)(C)CC(O2)C1CC(C)C (single isomer, unassigned) [Compound 233, 18-(2,6-dimethylphenyl)-5,5-dimethyl-22-(2-methylpropyl)-2-oxa-14λ^6-thia-7,15,17,20-tetraazatetracyclo[14.3.1.13,7.19,13]docosa-1(20),9(21),10,12,16,18-hexaene-8,14,14-trione] | 
14 | + (+ is <30%) |  |  | Cc1cccc(C)c1-c1cc2nc(n1)NS(=N)(=O)c1cccc(c1)C(=O)N1CCN(CCC(C)(C)C)C[C@H](C1)O2 (single isomer, unassigned) [Compound 244, 18-(3,3-dimethylbutyl)-12-(2,6-dimethylphenyl)-8-imino-15-oxa-8λ^6-thia-1,9,11,18,22-pentaazatetracyclo[14.4.1.13,7.110,14]tricosa-3,5,7(23),10,12,14(22)-hexaene-2,8-dione] | 
15 | + (+ is <30%) |  |  | Cc1cccc(C)c1-c1cc2nc(n1)NS(=O)(=O)c1cccc(c1)C(=O)N1C[C@@H](CN(CC(F)(F)F)CC1CC(C)C)O2 (stereo in doubt) [Compound 105, (16R,20R)-12-(2,6-Dimethylphenyl)-20-(2-methylpropyl)-18-(2,2,2-trifluoroethyl)-15-oxa-8λ^6-thia-1,9,11,18,22-pentaazatetracyclo[14.4.1.13,7.110,14]tricosa-3(23),4,6,10,12,14(22)-hexaene-2,8,8-trione] | 
16 | ++ (++ is 30-60%) | < 1 |  | Cc1cccc(C)c1-c1cc2nc(n1)NS(=O)(=O)c1cccc(c1)CN1C[C@@H](CN(Cc3ccccc3)CC1=O)O2 (stereo in doubt) [Compound 144] | 
17 |  |  |  | Cc1cccc(C)c1-c1cc2nc(n1)NS(=O)(=O)c1cccc(c1)C(=O)N1CCN(C[C@@H]3CC(C)(C)NC3=O)C[C@@H]1CO2 (stereo in doubt) [Compound 293] | + (+ is <300%)
18 |  |  | < 1 | Cc1cccc(C)c1-c1cc2nc(n1)NS(=O)(=O)c1cccc(c1)C(=O)N1Cc3ccccc3[C@@H](O2)[C@H]1CC(C)C (stereo in doubt) [Compound 332] | +++ (+++ is >60%)
19 |  |  | 3 to 30 | Cc1cccc(C)c1-c1cc2nc(n1)NS(=O)(=O)c1cccc(c1)C(=O)N1CCNC[C@H](C1)O2 [Compound 2, (16R)-12-(2,6-Dimethylphenyl)-15-oxa-8λ^6-thia-1,9,11,18,22-pentaazatetracyclo[14.4.1.13,7.110,14]tricosa-3,5,7(23),10,12,14(22)-hexaene-2,8,8-trione] | +++ (+++ is >60%)
